pIC50, pKi: −log10 of the molar value. “Also recorded” adds a separate entry of the source. Like-named read-outs stand apart in the source and are kept apart here. One block for each compound: values may come before it.
Key:
Top1 = target: T1, Top1 (Homo sapiens, UniProt P11387); assay: Top1-mediated DNA cleavage assay; assay type: biochemical; parameters: key: 0: no inhibitory activity; +: between 20% and 50% activity; ++: between 50% and 75% activity; +++: between 75% and 95% activity; ++++: equipotent; +++++: more potent; details: graded relative to 1 μM camptothecin
T1 sequence (P11387 1-765): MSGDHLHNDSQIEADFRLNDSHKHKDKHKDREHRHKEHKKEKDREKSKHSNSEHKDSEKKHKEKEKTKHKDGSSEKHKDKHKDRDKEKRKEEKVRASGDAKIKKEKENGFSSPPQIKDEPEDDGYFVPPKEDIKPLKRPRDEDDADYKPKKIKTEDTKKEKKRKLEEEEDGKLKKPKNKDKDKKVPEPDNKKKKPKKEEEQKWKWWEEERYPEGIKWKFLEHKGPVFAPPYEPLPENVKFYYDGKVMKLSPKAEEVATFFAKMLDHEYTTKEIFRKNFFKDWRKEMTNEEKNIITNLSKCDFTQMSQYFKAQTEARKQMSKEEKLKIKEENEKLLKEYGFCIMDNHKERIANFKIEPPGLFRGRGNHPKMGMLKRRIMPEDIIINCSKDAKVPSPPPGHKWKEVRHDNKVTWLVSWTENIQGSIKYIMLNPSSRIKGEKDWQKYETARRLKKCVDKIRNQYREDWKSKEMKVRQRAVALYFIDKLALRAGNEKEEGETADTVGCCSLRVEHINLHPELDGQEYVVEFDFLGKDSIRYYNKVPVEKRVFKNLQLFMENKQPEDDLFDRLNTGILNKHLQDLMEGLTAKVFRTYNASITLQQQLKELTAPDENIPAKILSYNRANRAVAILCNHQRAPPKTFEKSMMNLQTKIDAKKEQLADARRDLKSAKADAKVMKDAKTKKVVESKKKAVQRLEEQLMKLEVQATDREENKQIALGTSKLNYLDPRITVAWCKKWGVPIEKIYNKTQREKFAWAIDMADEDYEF

[1] = tested on: NCI panel of 60 human cancer cell lines; assay: Cytotoxicity mean-graph midpoint in NCI panel of 60 cancer cell lines; assay type: cell-based; details: for MGM (μM), cytotoxicity mean-graph midpoint: approximate average of GI50 across the panel
LNCap cell cultures = assay: Cytotoxicity in LNCap cell cultures; assay type: cell-based; details: LNCap cell cultures (FIG. 3)
Source text: The excellent cytotoxicities of the DUPA conjugates served as an indication that the disulfide reduction and conversion of the intermediates to the base drugs (6 and 18) are occurring intracellularly. Although an increase in potency has not been observed yet, this encouraging result partially supported our initial hypothesis, and urged further optimization of the peptide linker to facilitate the drug releasing mechanism.

22RV1 cells = assay: cells; assay type: cell-based, human; details: for pIC50: read-out: IC50
Procedure: 22RV1 cells were seeded in 24-well (50000 cells/well) Falcon plates and allowed to form monolayers over a period of 24-48 h. The old medium was replaced with fresh medium (0.5 mL) containing increasing concentrations of drug (either targeted or non-targeted) and cells were incubated for an additional 2 h and 24 h (in the case of targeted drug) at 37° C. Cells were washed (3×0.5 mL) with fresh medium and incubated in fresh medium (0.5 mL) for another 66 h at 37° C. The spent medium in each well was replaced with fresh medium (0.5 mL) containing [^3H]-thymidine (1 mCi/mL), and the cells were incubated for additional 4 h at 37° C. to allow [^3H]-thymidine incorporation. The cells were then washed with medium (2×0.5 mL) and treated with 5% trichloroacetic acid (0.5 mL) for 10 min at room temperature. The trichloroacetic acid was replaced with 0.25 N NaOH (0.5 mL) and the cells were transferred to individual scintillation vials containing Ecolume scintillation cocktail (3.0 mL), mixed well to form homogeneous liquid, and counted in a liquid scintillation analyzer. IC50 values were calculated by plotting %[^3H]-thymidine incorporation versus log concentration of drugs (targeted and non-targeted) using in GraphPad Prism 4.
The IC50 value of the indenoisoquinoline 18 itself was 2.0 nM when determined after a 2 h incubation. […] An increase in potency of 86 relative to 18 was not observed. […] However, the potential value of the conjugate 86 is lack of cytotoxicity in “normal” cells, which would result in 86 being a less toxic anticancer drug.

22RV1 tumors = assay: 22RV1 xenograft-bearing mice therapy study; details: for tumor growth during the treatment period: alternate days; for tumor growth during the treatment period / toxicity to the animals: 3 days/week for 3 weeks; for toxicity to the animals / body weight during the treatment period: 40 nmol/mouse IP; for body weight during the treatment period: live mice, 3 days/week for 3 weeks (FIG. 6)
[2] = Water solubility at room temperature; assay type: physicochemical
PSMA = PSMA ligand, literature value; cited from earlier work
[3] = Table 1, average of two determinations

Top1 inhibitory activity (Top1; Table 2): ++++
SMILES: NCCCn1c2c(c3ccc(Br)cc3c1=O)C(=O)c1cc3c(cc1-2)OCO3
MGM (μM), cytotoxicity mean-graph midpoint ([1]; Table 2): 0.329 µM

Top1 inhibitory activity (Top1; Table 2): ++++
SMILES: NCCCn1c2c(c3ccc([N+](=O)[O-])cc3c1=O)C(=O)c1cc3c(cc1-2)OCO3
MGM (μM), cytotoxicity mean-graph midpoint ([1]; Table 2): 0.090 µM

Top1 inhibitory activity (Top1; Table 1): ++++
SMILES: COc1ccc2c(c1)C(=O)c1c-2n(CCCN)c(=O)c2cc([N+](=O)[O-])ccc12 [Compound 6]
MGM (μM), cytotoxicity mean-graph midpoint [1, 3]: 0.047 µM
cytotoxicities (LNCap cell cultures): low nanomolar range

Top1 inhibitory activity (Top1; Table 1): ++ (between 50% and 75% activity)
SMILES: Br.COc1cc2c(cc1O)C(=O)c1c-2n(CCCN)c(=O)c2cc([N+](=O)[O-])ccc12 [Compound 12, 6-(3-Aminopropyl)-9-hydroxy-8-methoxy-3-nitro-5H-indeno[1,2-c]isoquinoline-5,11(6H)-dione hydrobromide]
MGM (μM), cytotoxicity mean-graph midpoint [1, 3]: 0.019 µM

Top1 inhibitory activity (Top1; Table 1): ++ (between 50% and 75% activity)
SMILES: Br.COc1cc2c(cc1O)C(=O)c1c-2n(CCCN2CCOCC2)c(=O)c2cc([N+](=O)[O-])ccc12 [Compound 13, 9-Hydroxy-8-methoxy-6-(3-morpholinopropyl)-3-nitro-5H-indeno[1,2-c]isoquinoline-5,11(6H)-dione hydrobromide]
MGM (μM), cytotoxicity mean-graph midpoint [1, 3]: 0.021 µM

Top1 inhibitory activity (Top1; Table 1): + (between 20% and 50% activity)
SMILES: Br.COc1cc2c(cc1O)C(=O)c1c-2n(CCCn2ccnc2)c(=O)c2cc([N+](=O)[O-])ccc12 [Compound 14, 6-(3-(1H-Imidazol-1-yl)propyl)-9-hydroxy-8-methoxy-3-nitro-5H-indeno[1,2-c]isoquinoline-5,11(6H)-dione hydrobromide]
MGM (μM), cytotoxicity mean-graph midpoint [1, 3]: 0.019 µM

Top1 inhibitory activity (Top1; Table 1): ++++
SMILES: COc1ccc2c(c1)C(=O)c1c-2n(CCCNCCO)c(=O)c2cc([N+](=O)[O-])ccc12 [Compound 15]
MGM (μM), cytotoxicity mean-graph midpoint [1, 3]: 0.016 µM

Top1 inhibitory activity (Top1; Table 1): ++++
SMILES: Cl.NCCCn1c2c(c3ccc([N+](=O)[O-])cc3c1=O)C(=O)c1cc3c(cc1-2)OCO3 [Compound 16, 6-(3-Aminopropyl)-5,6-dihydro-8,9-methylenedioxy-3-nitro-5,11-dioxo-11H-indeno[1,2-c]isoquinoline Hydrochloride]
MGM (μM), cytotoxicity mean-graph midpoint [1, 3]: 0.090 µM

SMILES: COc1cc2c(cc1O)C(=O)c1c-2n(CCCN2CCOCC2)c(=O)c2cc(OC)c(OC)cc12 [Compound 18]
Top1 inhibitory activity (Top1): +++++
GI50 ([1]; Homo sapiens, NCI's panel of 60 cancer cell lines, read-out: cytotoxicity mean-graph midpoint (MGM) GI50 value): 87 nM
pIC50 (22RV1 cells; Homo sapiens, 2 h incubation): 8.70
cytotoxicities (LNCap cell cultures): low nanomolar range
tumor growth during the treatment period (22RV1 tumors; 40 nmol/mouse (2.0 μmol/kg) IP): regression of tumor growth
toxicity to the animals (22RV1 tumors): toxic
body weight during the treatment period (22RV1 tumors): retained their normal body weights

SMILES: COc1ccc2c(c1)C(=O)c1c-2n(CCCNC(=O)OCCSSC[C@H](NC(=O)[C@H](CC(=O)O)NC(=O)[C@@H](N)CNC(=O)[C@H](Cc2ccccc2)NC(=O)[C@H](Cc2ccccc2)NC(=O)CCCCCCCNC(=O)CC[C@H](NC(=O)N[C@@H](CCC(=O)O)C(=O)O)C(=O)O)C(=O)O)c(=O)c2cc([N+](=O)[O-])ccc12 [Compound 84, (12R,15S,18S,22S,25S,39S,43S)-18-Amino-22,25-dibenzyl-15-(carboxymethyl)-1-(9-methoxy-3-nitro-5,11-dioxo-5,11-dihydro-6H-indeno[1,2-c]isoquinolin-6-yl)-5,14,17,21,24,27,36,41-octaoxo-6-oxa-9,10-dithia-4,13,16,20,23,26,35,40,42-nonaazapentatetracontane-12,39,43,45-tetracarboxylic acid]
cytotoxicities (LNCap cell cultures): low nanomolar range
solubility in water [2]: dissolve completely and easily

SMILES: COc1cc2c3c(n(CCCN4CCOCC4)c(=O)c2cc1OC)-c1cc(OC)c(OC(=O)OCCSSC[C@H](NC(=O)[C@H](CC(=O)O)NC(=O)[C@@H](N)CNC(=O)[C@H](Cc2ccccc2)NC(=O)[C@H](Cc2ccccc2)NC(=O)CCCCCCCNC(=O)CC[C@H](NC(=O)N[C@@H](CCC(=O)O)C(=O)O)C(=O)O)C(=O)O)cc1C3=O [Compound 86, (8R,11S,14S,18S,21S,35S,39S)-14-Amino-18,21-dibenzyl-11-(carboxymethyl)-1,10,13,17,20,23,32,37-octaoxo-1-((2,3,8-trimethoxy-6-(3-morpholinopropyl)-5,11-dioxo-6,11-dihydro-5H-indeno[1,2-c]isoquinolin-9-yl)oxy)-2-oxa-5,6-dithia-9,12,16,19,22,31,36,38-octaazahentetracontane-8,35,39,41-tetracarboxylic Acid]
pIC50 (22RV1 cells; 24-hour incubation): 7.94
IC50 (22RV1 cells; 2 h incubation): no activity
cytotoxicities (LNCap cell cultures): low nanomolar range
solubility in water [2]: dissolved easily
solubility in water ([2]; listed as 30): dissolve completely and easily
deaths of animals during the treatment period (22RV1 tumors; 40 nmol/mouse (2.0 μmol/kg) IP, 5 mice per group): not lethal; also recorded: no deaths
tumor growth during the treatment period (22RV1 tumors; 40 nmol/mouse (2.0 μmol/kg) IP): cessation of tumor growth
toxicity to the animals (22RV1 tumors): non-toxic
antitumor activity in competition group (22RV1 tumors; 86 at 40 nmol/mouse IP plus PSMA competitor 28 in 10-fold excess): complete loss of activity
body weight during the treatment period (22RV1 tumors): retained their normal body weights

SMILES: O=C(O)CCC(NC(=O)NC(CCC(=O)O)C(=O)O)C(=O)O (stereo not drawn) [DUPA, 2-[3-(1,3-Dicarboxypropyl)-Ureido]Pentanedioic Acid]
pIC50 (PSMA): 7.33
pKi (PSMA): 8.10

Top1 inhibitory activity (Top1; Table 2): ++++
SMILES: COc1cc2c3c(n(CCCN4CCOCC4)c(=O)c2cc1OC)-c1cc2c(cc1C3=O)OCO2 [drawing 72]
MGM (μM), cytotoxicity mean-graph midpoint ([1]; Table 2): 4.64 µM

Top1 inhibitory activity (Top1; Table 2): ++++
SMILES: COc1cc2c3c(n(CCCN4CCOCC4)c(=O)c2cc1OC)-c1cc2c(cc1C3=O)OCO2 [drawing 73]
MGM (μM), cytotoxicity mean-graph midpoint ([1]; Table 2): 0.079 µM
